Tests used:
Details in all cases: 72 h
BV-173 [1] = test system: BV-173
How it was run: (§1)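 Each of fifteen myeloid leukaemia cell lines was seeded in RPMI 1640 at a density titrated to its linear growth range. The cells were incubated for 72 h at 37 °C and 5% CO2 with compounds at five tenfold doses from 1 to 10,000 nM, in duplicate. After ATP luminescence was normalised to vehicle and to a positive control at 10 µM, four-parameter log-logistic curves were fitted. These curves gave the IC50.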

HEL [2] = test system: HEL
How it was run: as §1

HL-60 [3] = test system: HL-60
How it was run: as §1

K-562 [4] = test system: K-562
How it was run: as §1

KCL-22 [5] = test system: KCL-22
How it was run: as §1

KG-1 [6] = test system: KG-1
How it was run: as §1

KU-812 [7] = test system: KU-812
How it was run: as §1

LAMA-84 [8] = test system: LAMA-84
How it was run: as §1

ML-2 [9] = test system: ML-2
How it was run: as §1

MOLM-13 [10] = test system: MOLM-13
How it was run: as §1

MV4-11 [11] = test system: MV4-11
How it was run: as §1

Mono-Mac-6 [12] = test system: Mono-Mac-6
How it was run: as §1

NOMO-1 [13] = test system: NOMO-1
How it was run: as §1

SHI-1 [14] = test system: SHI-1
How it was run: as §1

THP-1 [15] = test system: THP-1
How it was run: as §1

BV-173 [16] = experiment: cell viability (% survival relative to DMSO control, bortezomib = 0%); higher = less cytotoxic
How it was run: (§2)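 In 384-well plates pre-printed with compounds at 1, 10, 100, 1000 or 10000 nM, duplicate wells received cells from 10 AML and 5 CML lines at densities within the linear growth range. The plates stayed at 37 °C with 5% CO2 for 72 h before CellTiter-Glo luminescence was recorded. Each entry is averaged percent survival. Scaling placed vehicle at 100% and a 10 µM positive control at 0%.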

HEL [17] = experiment: as above
How it was run: as §2

HL-60 [18] = experiment: as above
How it was run: as §2

K-562 [19] = experiment: as above
How it was run: as §2

KCL-22 [20] = experiment: as above
How it was run: as §2

KG-1 [21] = experiment: as above
How it was run: as §2

KU-812 [22] = experiment: as above
How it was run: as §2

LAMA-84 [23] = experiment: as above
How it was run: as §2

ML-2 [24] = experiment: as above
How it was run: as §2

MOLM-13 [25] = experiment: as above
How it was run: as §2

MV4-11 [26] = experiment: as above
How it was run: as §2

Mono-Mac-6 [27] = experiment: as above
How it was run: as §2

NOMO-1 [28] = experiment: as above
How it was run: as §2

SHI-1 [29] = experiment: as above
How it was run: as §2

THP-1 [30] = experiment: as above
How it was run: as §2

N#Cc1ccc(C2CCCc3cncn32)cc1 (stereo not given) [Fadrozole]
Details	IC50 (cell viability) [µM]
BV-173 [1]	> 10
HEL [2]	> 10
HL-60 [3]	> 10
K-562 [4]	> 10
KCL-22 [5]	> 10
KG-1 [6]	> 10
KU-812 [7]	> 10
LAMA-84 [8]	> 10
ML-2 [9]	> 10
MOLM-13 [10]	> 10
MV4-11 [11]	> 10
Mono-Mac-6 [12]	> 10
NOMO-1 [13]	> 10
SHI-1 [14]	> 10
THP-1 [15]	> 10

cell viability [%]
Details	1 nM	10 nM	100 nM	1000 nM	10000 nM
BV-173 [16]	103	95.3	95	116	106
HEL [17]	106	95.1	93.5	96.9	111
HL-60 [18]	108	91.7	88	85.9	99.2
K-562 [19]	95.8	97.9	95.8	101	109
KCL-22 [20]	115	92.2	88.6	82.7	103
KG-1 [21]	108	97.9	89.5	110	108
KU-812 [22]	95.8	87.3	92.2	112	112
LAMA-84 [23]	102	93.7	103	95.5	107
ML-2 [24]	90.5	90.7	86.2	107	109
MOLM-13 [25]	108	86.8	92.7	94.4	93.2
MV4-11 [26]	109	96.4	95.9	93.2	98.1
Mono-Mac-6 [27]	102	93.4	97.2	101	112
NOMO-1 [28]	100	90.2	93.4	100	105
SHI-1 [29]	113	95.3	101	95.8	102
THP-1 [30]	99.6	96.3	96.2	107	102

Cc1nc(-c2ccc(OCC(C)C)c(C#N)c2)sc1C(=O)O [Febuxostat]
Details	IC50 (cell viability) [µM]
BV-173 [1]	> 10
HEL [2]	> 10
HL-60 [3]	> 10
K-562 [4]	> 10
KCL-22 [5]	> 10
KG-1 [6]	> 10
KU-812 [7]	> 10
LAMA-84 [8]	> 10
ML-2 [9]	> 10
MOLM-13 [10]	> 10
MV4-11 [11]	> 10
Mono-Mac-6 [12]	> 10
NOMO-1 [13]	> 10
SHI-1 [14]	> 10
THP-1 [15]	> 10

cell viability [%]
Details	1 nM	10 nM	100 nM	1000 nM	10000 nM
BV-173 [16]	103	101	79.9	99.7	82.6
HEL [17]	97	97.8	106	105	84.5
HL-60 [18]	103	85.2	114	91.3	99.3
K-562 [19]	100	91.3	84.2	113	87.7
KCL-22 [20]	92.5	103	98	104	80.1
KG-1 [21]	102	97.5	103	94.6	90.4
KU-812 [22]	101	97.3	94	98.4	83.9
LAMA-84 [23]	102	95.7	92.4	105	101
ML-2 [24]	94	96	100	90.2	86.8
MOLM-13 [25]	90.6	102	141	103	94.9
MV4-11 [26]	88.2	104	99.1	105	116
Mono-Mac-6 [27]	91.7	102	99	92.9	92.7
NOMO-1 [28]	96.3	97.7	98.5	99.6	93.1
SHI-1 [29]	87	97.7	99	99.4	93.8
THP-1 [30]	102	92.4	95.1	99.6	93.6

OC[C@H]1N[C@@H](c2c[nH]c3c(O)ncnc23)[C@H](O)[C@@H]1O [Forodesine]
Details	IC50 (cell viability) [µM]
BV-173 [1]	> 10
HEL [2]	> 10
HL-60 [3]	> 10
K-562 [4]	> 10
KCL-22 [5]	> 10
KG-1 [6]	> 10
KU-812 [7]	> 10
LAMA-84 [8]	> 10
ML-2 [9]	> 10
MOLM-13 [10]	> 10
MV4-11 [11]	> 10
Mono-Mac-6 [12]	> 10
NOMO-1 [13]	> 10
SHI-1 [14]	> 10
THP-1 [15]	> 10

cell viability [%]
Details	1 nM	10 nM	100 nM	1000 nM	10000 nM
BV-173 [16]	95.1	83.9	103	91.1	89.1
HEL [17]	103	95.9	102	92.6	88.6
HL-60 [18]	92.1	98	95.8	102	90.2
K-562 [19]	94.9	94.4	88.3	97.5	99.3
KCL-22 [20]	102	91.8	100	99.2	91.3
KG-1 [21]	107	94.2	95.4	85.1	82.8
KU-812 [22]	89.9	96	96.8	96.4	75.4
LAMA-84 [23]	96.4	90.1	94.7	93	88.7
ML-2 [24]	92.7	85	95.3	92.9	85.7
MOLM-13 [25]	81.3	89.2	93.1	103	84.1
MV4-11 [26]	97.1	94.5	91.7	92.3	90.3
Mono-Mac-6 [27]	109	87.5	107	108	88.5
NOMO-1 [28]	97.9	92.3	97.3	96.9	87.4
SHI-1 [29]	101	95.5	94.3	108	98.9
THP-1 [30]	100	93.9	90.7	83.1	74.3

O=c1oc2c(cc1O)oc(=O)c1cc(O)c(O)c(O)c12 [Galloflavin]
Details	IC50 (cell viability) [µM]
BV-173 [1]	> 10
HEL [2]	> 10
HL-60 [3]	> 10
K-562 [4]	> 10
KCL-22 [5]	> 10
KG-1 [6]	> 10
KU-812 [7]	> 10
LAMA-84 [8]	> 10
ML-2 [9]	> 10
MOLM-13 [10]	> 10
MV4-11 [11]	> 10
Mono-Mac-6 [12]	> 10
NOMO-1 [13]	> 10
SHI-1 [14]	> 10
THP-1 [15]	> 10

cell viability [%]
Details	1 nM	10 nM	100 nM	1000 nM	10000 nM
BV-173 [16]	91	97.5	99.4	108	118
HEL [17]	99.7	98.6	122	106	107
HL-60 [18]	108	101	114	180	186
K-562 [19]	107	105	100	116	112
KCL-22 [20]	103	95.3	102	104	112
KG-1 [21]	92.7	97.2	114	115	100
KU-812 [22]	94.8	96	90.7	96.6	105
LAMA-84 [23]	93.7	95	106	98.2	99.4
ML-2 [24]	101	95	113	111	115
MOLM-13 [25]	99.3	120	92	115	119
MV4-11 [26]	100	102	94.5	106	102
Mono-Mac-6 [27]	92.9	99.7	113	113	100
NOMO-1 [28]	91.8	97.7	99.1	102	106
SHI-1 [29]	108	105	106	112	104
THP-1 [30]	98	99.3	101	99.4	108

Nc1ccn([C@@H]2O[C@H](CO)[C@@H](O)C2(F)F)c(=O)n1 [Gemcitabine]
Details	IC50 (cell viability) [µM]
BV-173 [1]	0.00213
HEL [2]	0.00346
HL-60 [3]	0.00803
K-562 [4]	0.0164
KCL-22 [5]	0.00687
KG-1 [6]	0.0061
KU-812 [7]	0.0033
LAMA-84 [8]	0.00897
ML-2 [9]	0.00312
MOLM-13 [10]	0.00311
MV4-11 [11]	0.00188
Mono-Mac-6 [12]	0.00301
NOMO-1 [13]	0.0057
SHI-1 [14]	0.00479
THP-1 [15]	0.00687

cell viability [%]
Details	1 nM	10 nM	100 nM	1000 nM	10000 nM
BV-173 [16]	83.3	-0.488	0.0466	0.053	-0.136
HEL [17]	105	1.42	-0.289	0.472	0.991
HL-60 [18]	104	38.9	-0.42	0.321	0.435
K-562 [19]	92.6	62.1	37.3	29.6	28.7
KCL-22 [20]	104	37.7	9.55	8.82	9.48
KG-1 [21]	105	33.4	9.8	11.5	9.39
KU-812 [22]	90.8	17.4	7.87	6.94	6.04
LAMA-84 [23]	95.6	45.7	5.22	4.64	4.9
ML-2 [24]	96.3	3.45	1.35	2.33	2.18
MOLM-13 [25]	96.6	2.43	0.0219	0.303	0.34
MV4-11 [26]	78.5	-0.0353	-0.464	0.602	0.268
Mono-Mac-6 [27]	95.1	2.34	1.01	0.852	0.24
NOMO-1 [28]	103	24.5	3.18	1.37	0.238
SHI-1 [29]	101	25.9	34.1	0.0306	-0.276
THP-1 [30]	110	44.4	30.5	23.5	20.4

From the supplement of paper PMC8671470
